According to patent US6620916B1, “Modified physiologically active proteins and medicinal compositions containing the same” (Ajinomoto Co., Inc., priority 1996, dated 2003):
“Also recorded” adds a separate entry of the source.

Tests used:
ASGR = target: T1, ASGR (Mus musculus, UniProt P24721+P34927); assay: Hepatocyte binding test with 125I-labeled ligands, Scatchard analysis; conditions: mouse hepatocytes, 4° C., 2 hours
T1 construct: endogenous in cells; host or cells: primary hepatocytes from C57BL/6 mice (7W, male)
T1 sequence (P34927 1-284): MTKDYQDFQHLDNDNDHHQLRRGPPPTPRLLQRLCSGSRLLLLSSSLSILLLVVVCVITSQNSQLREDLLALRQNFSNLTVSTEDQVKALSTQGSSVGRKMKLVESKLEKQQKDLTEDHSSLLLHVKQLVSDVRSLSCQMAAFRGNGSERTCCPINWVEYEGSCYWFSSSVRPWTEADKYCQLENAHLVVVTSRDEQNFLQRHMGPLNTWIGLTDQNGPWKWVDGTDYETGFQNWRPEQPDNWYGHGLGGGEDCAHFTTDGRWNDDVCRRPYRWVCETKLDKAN
T1 sequence (P24721 1-301): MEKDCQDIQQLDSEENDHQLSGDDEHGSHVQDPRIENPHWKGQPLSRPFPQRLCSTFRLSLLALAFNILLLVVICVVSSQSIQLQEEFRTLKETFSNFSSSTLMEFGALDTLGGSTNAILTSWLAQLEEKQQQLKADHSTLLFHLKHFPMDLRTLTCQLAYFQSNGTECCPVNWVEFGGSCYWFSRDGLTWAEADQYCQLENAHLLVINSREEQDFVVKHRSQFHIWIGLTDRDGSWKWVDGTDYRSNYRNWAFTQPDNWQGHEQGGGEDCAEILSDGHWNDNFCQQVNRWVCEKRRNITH
Description: The test for binding of a modified product to hepatocytes was conducted using mouse-separated hepatocytes prepared by the collagenase reflux method which is a modification of the method of Berry et al. (M. N. Berry et al., J. Cell Biol., 43, 506-520 (1969)). That is, seven mice (C57BL/6, 7W, male) were refluxed with a collagenase (type I, supplied by Wako Pure Chemical Industries, Ltd.) and each liver thereof was then severed. Each liver was filtered using a cell filter. Hepatocytes were then collected through centrifugation at a low rate (50 g×1 min), and incubated for from 1 to 4 hours in a D-MEM medium containing 10% FBS (supplied by Gibco, containing 100 U/ml of penicillin, 100 μg/ml of streptomycin and 50 μg/ml of gentamicin) using a tissue culture dish of 150 mm (supplied by Iwaki Garasu K.K.). […]
The hepatocyte binding test was conducted by the method of Chang et al. (T. Chang et al., BBA 942. 57-64 (1988)). […] Thereafter, the radioactivity by the non-specific binding was subtracted from the radioactivity of 0.8 ml of 1 ml of the 0.1 N NaOH solution containing 0.5% SDS, and the radioactivity of the total amount thereof was calculated from the above-obtained value. The thus-calculated value was defined as an amount of a bound fraction. […] The total protein amount of the cells was calculated by the Lorry method using 0.1 ml of the solution. […]

[1] = test system: mouse-separated hepatocytes; assay: Uptake of 125I-labeled modified product into hepatocytes; format: cell-based; conditions: 24 nM, 37° C.
Description: The test for uptake into hepatocytes was also conducted according to the method of Chang et al (T. Chang et al., BBA 942. 57-64 (1988)). The cells which were approximately in the almost confluent state were washed once with a D-MEM medium (pH 7.4) containing 0.1% BSA and 10 mM Hepes, and the buffer was added thereto. The mixture was incubated in 5% CO2 at 37° C. for 30 minutes. […] On the other hand, the non-specific uptake was conducted by adding 100 mM N-acetylgalactosamine in each of the labeled solutions. Each plate incubated was moved on an ice bath after the reaction. A part of the medium was sampled, and a D-PBS solution (free from Ca^2+ and Mg^2+) containing 20 mM EGTA cooled at 4° C. was added thereto. The mixture was allowed to stand for 5 minutes. This washing was repeated twice. Further, the plate was washed once with a D-PBS solution (free from Ca^2+ and Mg^2+) cooled, and then allowed to stand at −20° C. for 30 minutes or more. The radioactivity by the non-specific binding was subtracted from the radioactivity of 0.8 ml of 1 ml of the 0.1 N NaOH solution containing 0.5% SDS in each well, and the radioactivity of the total amount thereof was calculated from the above-obtained value. The thus-calculated value was defined as an amount of an uptake fraction. Meanwhile, a value obtained by subtracting the radioactivity by the non-specific degradation from the radioactivity of the total trichloroacetic acid-soluble fraction in the medium was defined as an amount of a degradation fraction. The uptake tast was conducted with each point of n=3. The total protein amount of the cells was calculated by the Lorry method with respect to 0.1 ml of the solution.

Molecule	dissociation constant (Kd1) of high affinity site (ASGR)	time to saturation of uptake [1]	degradation component ([1]; 0-4 hours)	uptake component in hepatocytes ([1]; 0-4 hours)
CC(C)(C)OC(=O)NC(Cc1ccc(O)cc1)C(=O)NCCCCCC(=O)NC(CCC(=O)NC(CCC(=O)NCCOCCOCCOC1OC(CO)C(O)C(O)C1O)C(=O)NCCOCCOCCOC1OC(CO)C(O)C(O)C1O)C(=O)NCCOCCOCCOC1OC(CO)C(O)C(O)C1O (centres unmarked) [(Gal)3-Tyr-Boc]	in the order level of multi-ten nM			
CC(=O)NC1C(OCCOCCOCCNC(=O)CCC(NC(=O)CCC(NC(=O)CCCCCNC(=O)C(Cc2ccc(O)cc2)NC(=O)OC(C)(C)C)C(=O)NCCOCCOCCOC2OC(CO)C(O)C(O)C2NC(C)=O)C(=O)NCCOCCOCCOC2OC(CO)C(O)C(O)C2NC(C)=O)OC(CO)C(O)C1O (centres unmarked) [(GalNAc)3-Tyr-Boc]	in the order level of multi-ten nM; also recorded: lower than that of (Gal)3-Tyr-Boc			
ASOR: asialoorosomucoid produced from human orosomucoid, natural ligand of ASGR		1 h	gradually increased with the lapse of time	observed after 30 minutes of the incubation
